# Laboratory results reported in patent US12649750B2, “Macrocyclic compounds, compositions, and methods of using thereof” (Sionna Therapeutics Inc., priority 2022, dated 2026).
# Assays:
# NBD1 = biological target: T1, NBD1 (Homo sapiens, UniProt P13569); assay: Aggregation analysis using differential static light scattering (DSLS), thermal stability of NBD1 (ΔTagg); format: binding; details: ΔTagg versus DMSO control, NBD1 0.2 mg/ml
# T1 construct: Purified recombinant NBD1 was produced using previously described methods; made in house
# T1 sequence (P13569 423-646 limits assumed): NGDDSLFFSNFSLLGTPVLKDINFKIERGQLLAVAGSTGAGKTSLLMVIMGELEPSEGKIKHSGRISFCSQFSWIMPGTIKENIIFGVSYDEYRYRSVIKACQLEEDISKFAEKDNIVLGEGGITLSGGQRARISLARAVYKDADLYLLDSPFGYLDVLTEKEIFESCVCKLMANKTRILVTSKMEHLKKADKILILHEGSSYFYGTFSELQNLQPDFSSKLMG
# Method in brief: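 NBD1 0.2 mg/ml, S200 buffer (50 mM Tris-HCl, 150 mM NaCl, 5 mM MgCl2, 2 mM ATP, 2 mM DTT, pH7.6) + 1% glycerol; cpd in DMSO; oil overlay. Ramp 25→70° C. at 1° C./min, DSLS images every 0.5° C. ΔTagg = Tagg (inflection) − mean DMSO Tagg.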
# CFTR = biological target: T2, CFTR (Homo sapiens, UniProt P13569, DEL508-508); assay: TECC24 AUC fold over DMSO @10 μM, CFTR-mediated transepithelial chloride transport in CF-HBE cells; format: cell-based; details: test agent AUC divided by DMSO vehicle AUC, primary CF-HBE cells, ΔF508 homozygous donor, 48 hours incubation
# T2 construct: Primary human bronchial epithelial cells from a ΔF508 homozygous CF donor; host or cells: primary human bronchial epithelial cells (CF-HBE), ΔF508 homozygous donor
# T2 sequence (P13569 with tags, fused parts or gaps DEL508-508): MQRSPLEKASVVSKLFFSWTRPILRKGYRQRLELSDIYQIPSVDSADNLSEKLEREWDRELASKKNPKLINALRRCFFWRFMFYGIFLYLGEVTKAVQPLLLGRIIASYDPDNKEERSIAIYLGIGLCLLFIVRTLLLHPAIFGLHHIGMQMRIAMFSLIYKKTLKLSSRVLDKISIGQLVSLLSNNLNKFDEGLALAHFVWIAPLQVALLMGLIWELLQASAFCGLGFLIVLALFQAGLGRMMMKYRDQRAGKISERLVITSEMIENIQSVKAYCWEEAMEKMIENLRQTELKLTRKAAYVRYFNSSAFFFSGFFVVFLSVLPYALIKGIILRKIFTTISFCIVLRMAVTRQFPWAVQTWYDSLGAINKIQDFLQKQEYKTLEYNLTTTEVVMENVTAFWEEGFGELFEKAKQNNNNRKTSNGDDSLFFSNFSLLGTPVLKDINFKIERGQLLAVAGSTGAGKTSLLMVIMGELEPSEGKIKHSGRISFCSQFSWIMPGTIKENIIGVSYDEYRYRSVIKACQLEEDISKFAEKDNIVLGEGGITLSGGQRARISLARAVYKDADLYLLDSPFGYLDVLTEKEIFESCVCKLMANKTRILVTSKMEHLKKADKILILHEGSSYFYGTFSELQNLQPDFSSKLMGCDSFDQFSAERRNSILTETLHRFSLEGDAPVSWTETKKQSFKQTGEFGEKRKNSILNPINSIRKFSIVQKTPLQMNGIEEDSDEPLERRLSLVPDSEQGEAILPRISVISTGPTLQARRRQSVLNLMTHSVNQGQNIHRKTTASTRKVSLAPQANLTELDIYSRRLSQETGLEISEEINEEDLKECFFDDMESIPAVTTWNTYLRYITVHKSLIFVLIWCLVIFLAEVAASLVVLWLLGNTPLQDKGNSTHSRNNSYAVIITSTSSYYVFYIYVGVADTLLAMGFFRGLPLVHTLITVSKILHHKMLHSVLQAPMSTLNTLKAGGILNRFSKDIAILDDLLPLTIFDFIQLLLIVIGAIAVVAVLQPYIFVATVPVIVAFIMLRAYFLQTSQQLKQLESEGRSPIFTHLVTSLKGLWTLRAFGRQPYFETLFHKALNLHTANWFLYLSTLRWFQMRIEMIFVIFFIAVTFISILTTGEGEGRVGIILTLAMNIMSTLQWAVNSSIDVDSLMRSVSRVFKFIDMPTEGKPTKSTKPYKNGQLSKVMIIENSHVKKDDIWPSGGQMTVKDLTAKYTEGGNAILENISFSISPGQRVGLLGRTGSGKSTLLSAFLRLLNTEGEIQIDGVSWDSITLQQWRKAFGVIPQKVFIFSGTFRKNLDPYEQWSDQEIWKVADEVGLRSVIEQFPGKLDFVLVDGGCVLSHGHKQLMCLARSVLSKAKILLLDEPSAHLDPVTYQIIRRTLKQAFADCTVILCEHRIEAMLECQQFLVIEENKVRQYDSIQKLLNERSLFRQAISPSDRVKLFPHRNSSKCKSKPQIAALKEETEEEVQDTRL
# Method in brief: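 Primary ΔF508-homozygous CF bronchial epithelial cells on inserts were incubated 48 h at 36.5 °C with compound in IL-13-containing medium. VT and TEER were then recorded in current-clamp mode (pH 7.4 HEPES bath) with benzamil 10 μM, forskolin 10 μM, then CFTR inhibitor-172 20 μM. The IEQ AUC between forskolin and inhibitor was divided by vehicle AUC.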
SMILES,DSLS 3D (100 μM ΔT) (NBD1),"TECC (AUC, 10 μM) (CFTR)"
"C[C@@H](Cc1cccc([C@@]2(C)CCCC(C)(C)CS(=O)(=O)CCc3c(c(F)cc4[nH]ccc34)[S+]([O-])c3cccc(c3)-c3nc2nn3C)c1)C(=O)O (single isomer, unassigned) [Compound 211A]",C (a value greater than 10 °C and less than or equal to 25 °C is marked “C”),B (a value between 12-20 is marked “B”)
"C[C@@H](Cc1cccc([C@@]2(C)CCCC(C)(C)CS(=O)(=O)CCc3c(c(F)cc4[nH]ccc34)[S+]([O-])c3cccc(c3)-c3nc2nn3C)c1)C(=O)O (single isomer, unassigned) [Compound 211B]",C (a value greater than 10 °C and less than or equal to 25 °C is marked “C”),A (a TECC value less than 12 is marked “A”)
"Cn1nc2nc1-c1cc(ccc1F)[S+]([O-])c1c(F)cc3[nH]ccc3c1CCS(=O)(=O)CC(C)(C)CCC[C@]2(C)c1cccc(CCC(=O)O)c1 (single isomer, unassigned) [Compound 215A]",C (a value greater than 10 °C and less than or equal to 25 °C is marked “C”),A (a TECC value less than 12 is marked “A”)
"Cn1nc2nc1-c1cc(ccc1F)[S+]([O-])c1c(F)cc3[nH]ccc3c1CCS(=O)(=O)CC(C)(C)CCC[C@]2(C)c1cccc(CCC(=O)O)c1 (single isomer, unassigned) [Compound 215B]",C (a value greater than 10 °C and less than or equal to 25 °C is marked “C”),C (a value between 20 and 80 is marked “C”)
"Cn1nc2nc1-c1cc(ccc1F)[S+]([O-])c1c(F)cc3[nH]ccc3c1CCS(=O)(=O)CC(C)(C)CCC[C@]2(C)c1cccc(CCO)c1 (single isomer, unassigned) [Compound 216A]",B (a value above 5 °C and less than or equal to 10 °C is marked “B”),B (a value between 12-20 is marked “B”)
"Cn1nc2nc1-c1cc(ccc1F)[S+]([O-])c1c(F)cc3[nH]ccc3c1CCS(=O)(=O)CC(C)(C)CCC[C@]2(C)c1cccc(CCO)c1 (single isomer, unassigned) [Compound 216B]",C (a value greater than 10 °C and less than or equal to 25 °C is marked “C”),C (a value between 20 and 80 is marked “C”)
"COCC(Cc1cccc([C@@]2(C)CCCC(C)(C)CS(=O)(=O)CCc3c(c(F)cc4[nH]ccc34)[S+]([O-])c3ccc(F)c(c3)-c3nc2nn3C)c1)C(=O)O (single isomer, unassigned) [Compound 218A]",B (a value above 5 °C and less than or equal to 10 °C is marked “B”),A (a TECC value less than 12 is marked “A”)
"COCC(Cc1cccc([C@@]2(C)CCCC(C)(C)CS(=O)(=O)CCc3c(c(F)cc4[nH]ccc34)[S+]([O-])c3ccc(F)c(c3)-c3nc2nn3C)c1)C(=O)O (single isomer, unassigned) [Compound 218B]",C (a value greater than 10 °C and less than or equal to 25 °C is marked “C”),C (a value between 20 and 80 is marked “C”)
"Cn1nc2nc1-c1cc(ccc1F)[S+]([O-])c1c(F)cc3[nH]ccc3c1CCS(=O)(=O)CC(C)(C)CCC[C@]2(C)c1cccc(CCS(C)(=O)=O)c1 (single isomer, unassigned) [Compound 220A]",A (an ΔTagg value less than or equal to 5 °C is marked “A”),A (a TECC value less than 12 is marked “A”)
"Cn1nc2nc1-c1cc(ccc1F)[S+]([O-])c1c(F)cc3[nH]ccc3c1CCS(=O)(=O)CC(C)(C)CCC[C@]2(C)c1cccc(CCS(C)(=O)=O)c1 (single isomer, unassigned) [Compound 220B]",C (a value greater than 10 °C and less than or equal to 25 °C is marked “C”),C (a value between 20 and 80 is marked “C”)
"C[C@@H](Cc1cccc([C@@]2(C)CCCC(C)(C)CS(=O)(=O)CCc3c(c(F)cc4[nH]ccc34)[S+]([O-])c3ccnc(c3)-c3nc2nn3C)c1)C(=O)O (single isomer, unassigned) [Compound 222A]",B (a value above 5 °C and less than or equal to 10 °C is marked “B”),C (a value between 20 and 80 is marked “C”)
"C[C@@H](Cc1cccc([C@@]2(C)CCCC(C)(C)CS(=O)(=O)CCc3c(c(F)cc4[nH]ccc34)[S+]([O-])c3ccnc(c3)-c3nc2nn3C)c1)C(=O)O (single isomer, unassigned) [Compound 222B]",C (a value greater than 10 °C and less than or equal to 25 °C is marked “C”),C (a value between 20 and 80 is marked “C”)
"Cn1nc2nc1-c1cc(ccc1F)[S+]([O-])c1c(F)cc3[nH]ccc3c1CCS(=O)(=O)CC(C)(C)CCC[C@]2(C)c1ccccc1 (single isomer, unassigned) [Compound 223A]",A (an ΔTagg value less than or equal to 5 °C is marked “A”),A (a TECC value less than 12 is marked “A”)
"Cn1nc2nc1-c1cc(ccc1F)[S+]([O-])c1c(F)cc3[nH]ccc3c1CCS(=O)(=O)CC(C)(C)CCC[C@]2(C)c1ccccc1 (single isomer, unassigned) [Compound 223B]",C (a value greater than 10 °C and less than or equal to 25 °C is marked “C”),C (a value between 20 and 80 is marked “C”)
"Cn1nc2nc1-c1cc(ccn1)[S+]([O-])c1c(F)cc3[nH]ccc3c1CCS(=O)(=O)CC(C)(C)CCC[C@]2(C)c1cccc(CCC(=O)O)c1 (single isomer, unassigned) [Compound 224]",C (a value greater than 10 °C and less than or equal to 25 °C is marked “C”),C (a value between 20 and 80 is marked “C”)
"C[C@@H](Cc1cccc([C@@]2(C)CCCC(C)(C)CS(=O)(=O)CCc3c(c(F)c(F)c4[nH]ccc34)[S+]([O-])c3ccc(F)c(c3)-c3nc2nn3C)c1)C(=O)O (single isomer, unassigned) [Compound 225A]",B (a value above 5 °C and less than or equal to 10 °C is marked “B”),C (a value between 20 and 80 is marked “C”)
"C[C@@H](Cc1cccc([C@@]2(C)CCCC(C)(C)CS(=O)(=O)CCc3c(c(F)c(F)c4[nH]ccc34)[S+]([O-])c3ccc(F)c(c3)-c3nc2nn3C)c1)C(=O)O (single isomer, unassigned) [Compound 225B]",C (a value greater than 10 °C and less than or equal to 25 °C is marked “C”),C (a value between 20 and 80 is marked “C”)
"Cn1nc2nc1-c1cc(ccc1F)[S+]([O-])c1c(F)cc3[nH]ccc3c1CCS(=O)(=O)CC(C)(C)CCC[C@]2(C)c1cccc(C[C@@H](O)CO)c1 (single isomer, unassigned) [Compound 235A]",B (a value above 5 °C and less than or equal to 10 °C is marked “B”),B (a value between 12-20 is marked “B”)
"Cn1nc2nc1-c1cc(ccc1F)[S+]([O-])c1c(F)cc3[nH]ccc3c1CCS(=O)(=O)CC(C)(C)CCC[C@]2(C)c1cccc(C[C@@H](O)CO)c1 (single isomer, unassigned) [Compound 235B]",C (a value greater than 10 °C and less than or equal to 25 °C is marked “C”),C (a value between 20 and 80 is marked “C”)
